Test results taken from ChEMBL document CHEMBL1201862, “PubChem BioAssay data set” (2004).
Calls of active or inactive are those of the source.

Tests used:
[1] = biological target: Serine/threonine-protein phosphatase (Homo sapiens, UniProt Q9BPW0); test: PP5 phosphatase inhibitors, dose response, biochemical, fluorescence (AID 2395)
[2] = biological target: Serine/threonine-protein phosphatase PP1-alpha catalytic subunit (Homo sapiens, UniProt P62136); test: PP1 phosphatase inhibitors, dose response, biochemical, fluorescence (AID 2394)
Sequence of Serine/threonine-protein phosphatase PP1-alpha catalytic subunit (P62136 whole entry): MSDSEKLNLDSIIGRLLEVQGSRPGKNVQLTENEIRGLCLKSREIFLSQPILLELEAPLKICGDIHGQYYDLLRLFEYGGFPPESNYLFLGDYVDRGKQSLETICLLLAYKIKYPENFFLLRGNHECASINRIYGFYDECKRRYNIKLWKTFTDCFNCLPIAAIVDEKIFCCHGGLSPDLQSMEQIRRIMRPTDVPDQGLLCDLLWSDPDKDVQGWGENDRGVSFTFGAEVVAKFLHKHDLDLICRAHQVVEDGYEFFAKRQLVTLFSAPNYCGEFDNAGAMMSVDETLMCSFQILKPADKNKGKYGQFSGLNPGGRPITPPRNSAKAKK

[3] = biological target: Heat shock protein HSP 90-alpha (Homo sapiens, UniProt P07900); test: Luminescence-based dose response biochemical high throughput screening assay for inhibitors of the Heat Shock Protein 90 (HSP90). [Related pubchem assays: 1831 (Summary AID.), 1846 (Confirmation screen.), 1789 (Primary screen.)]
[4] = test system: Streptococcus sp. 'group A'; test: growth inhibition of control SK(-) GAS strain, dose response, counter-screen for streptokinase expression inhibitor project, luminescence, kanamycin, BacTiterGlo, confirmation (AID 1900); type: functional, organism-based
[5] = inhibitors of intracellular T. cruzi replication, confirmation, NIH3T3 host cells, beta-gal luminescence (AID 2044); type: functional, cell-based;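 also: intracellular parasites grown in NIH/3T3 mouse fibroblasts as host cells; luminescent beta-galactosidase reporter signal from transgenic T. cruzi replicating inside host cells; inhibitors lower the luminescence signal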
INS1 = test: beta cell apoptosis inhibitors, cytokine rescue, dose response, luminescence, retest (AID 449756); type: functional, cell-based; conditions: Rattus norvegicus;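 also: cell death triggered by IL-1 beta plus TNF-alpha plus IFN-gamma mixture; protective hits raise ATP signal compared with cytokine alone wells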
[6] = biological target: T1, Apoptotic protease-activating factor 1 (Homo sapiens, UniProt O14727); type: functional
T1 sequence (O14727 whole entry): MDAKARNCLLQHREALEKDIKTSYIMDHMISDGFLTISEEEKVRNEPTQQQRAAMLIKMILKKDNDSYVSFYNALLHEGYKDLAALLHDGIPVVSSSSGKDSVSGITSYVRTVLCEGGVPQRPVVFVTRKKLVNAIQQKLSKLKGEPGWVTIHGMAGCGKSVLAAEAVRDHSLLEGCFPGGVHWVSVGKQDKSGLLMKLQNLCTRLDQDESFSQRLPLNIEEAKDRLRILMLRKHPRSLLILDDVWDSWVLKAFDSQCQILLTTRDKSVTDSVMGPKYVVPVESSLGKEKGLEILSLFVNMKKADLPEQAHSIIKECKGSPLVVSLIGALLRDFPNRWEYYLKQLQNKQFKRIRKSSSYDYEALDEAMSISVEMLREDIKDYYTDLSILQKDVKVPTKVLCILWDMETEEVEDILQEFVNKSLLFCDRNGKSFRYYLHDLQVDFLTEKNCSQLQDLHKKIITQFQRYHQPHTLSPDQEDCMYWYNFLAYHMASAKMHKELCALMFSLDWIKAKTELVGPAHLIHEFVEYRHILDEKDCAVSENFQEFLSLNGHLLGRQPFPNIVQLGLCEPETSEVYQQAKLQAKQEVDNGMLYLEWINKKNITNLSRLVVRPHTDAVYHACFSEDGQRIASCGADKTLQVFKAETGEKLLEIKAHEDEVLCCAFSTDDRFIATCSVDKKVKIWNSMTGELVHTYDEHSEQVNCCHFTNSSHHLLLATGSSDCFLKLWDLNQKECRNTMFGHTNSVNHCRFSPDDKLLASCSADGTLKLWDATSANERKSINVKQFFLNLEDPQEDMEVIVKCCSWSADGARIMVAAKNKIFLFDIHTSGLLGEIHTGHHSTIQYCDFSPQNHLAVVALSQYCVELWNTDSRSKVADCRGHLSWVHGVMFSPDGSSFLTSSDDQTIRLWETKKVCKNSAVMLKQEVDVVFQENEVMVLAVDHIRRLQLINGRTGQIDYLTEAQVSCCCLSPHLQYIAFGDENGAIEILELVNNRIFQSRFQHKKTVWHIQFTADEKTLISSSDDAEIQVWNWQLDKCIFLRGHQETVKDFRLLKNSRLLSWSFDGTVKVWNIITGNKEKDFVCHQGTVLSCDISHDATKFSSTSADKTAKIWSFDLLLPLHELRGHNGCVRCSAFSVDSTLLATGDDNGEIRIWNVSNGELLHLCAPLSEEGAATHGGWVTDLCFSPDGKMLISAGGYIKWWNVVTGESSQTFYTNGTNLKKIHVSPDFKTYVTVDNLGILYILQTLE

[7] = biological target: Mitochondrial peptide methionine sulfoxide reductase (Bos taurus, UniProt P54149); type: functional;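 also: absorbance read-out, biochemical high-throughput dose-response screen for MsrA inhibitors, confirmatory; recombinant bovine MsrA coupled to E. coli TrxB with NADPH and selenocystamine; potency is for inhibitors of MsrA activity on DMSO substrate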
Sequence of Mitochondrial peptide methionine sulfoxide reductase (P54149 whole entry): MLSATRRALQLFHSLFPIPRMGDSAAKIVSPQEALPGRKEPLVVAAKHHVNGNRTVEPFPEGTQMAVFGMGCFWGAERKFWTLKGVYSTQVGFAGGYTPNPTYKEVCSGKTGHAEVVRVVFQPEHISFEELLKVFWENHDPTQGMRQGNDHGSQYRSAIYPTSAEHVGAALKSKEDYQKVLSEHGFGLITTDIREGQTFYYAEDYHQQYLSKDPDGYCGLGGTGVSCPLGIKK

[8] = cytotoxicity in HEK-293T cells, dose response, cytotoxicity control for TCR NF-kB inhibitor project, luminescence, T-cell screen hits (AID 489026); type: functional, cell-based;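 also: cells exposed to compound about 14 hours before the viability readout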
Protein RecA = biological target: T2, Protein RecA (Mycobacterium tuberculosis, UniProt P9WHJ3); test: Fluorescence Cell-Free Homogeneous Dose Retest to Identify Inhibitors of RecA-Intein Splicing Activity. [Related pubchem assays (depositor defined):AID2097, AID2223, AID489010, AID492950]; type: functional
T2 sequence (P9WHJ3 whole entry): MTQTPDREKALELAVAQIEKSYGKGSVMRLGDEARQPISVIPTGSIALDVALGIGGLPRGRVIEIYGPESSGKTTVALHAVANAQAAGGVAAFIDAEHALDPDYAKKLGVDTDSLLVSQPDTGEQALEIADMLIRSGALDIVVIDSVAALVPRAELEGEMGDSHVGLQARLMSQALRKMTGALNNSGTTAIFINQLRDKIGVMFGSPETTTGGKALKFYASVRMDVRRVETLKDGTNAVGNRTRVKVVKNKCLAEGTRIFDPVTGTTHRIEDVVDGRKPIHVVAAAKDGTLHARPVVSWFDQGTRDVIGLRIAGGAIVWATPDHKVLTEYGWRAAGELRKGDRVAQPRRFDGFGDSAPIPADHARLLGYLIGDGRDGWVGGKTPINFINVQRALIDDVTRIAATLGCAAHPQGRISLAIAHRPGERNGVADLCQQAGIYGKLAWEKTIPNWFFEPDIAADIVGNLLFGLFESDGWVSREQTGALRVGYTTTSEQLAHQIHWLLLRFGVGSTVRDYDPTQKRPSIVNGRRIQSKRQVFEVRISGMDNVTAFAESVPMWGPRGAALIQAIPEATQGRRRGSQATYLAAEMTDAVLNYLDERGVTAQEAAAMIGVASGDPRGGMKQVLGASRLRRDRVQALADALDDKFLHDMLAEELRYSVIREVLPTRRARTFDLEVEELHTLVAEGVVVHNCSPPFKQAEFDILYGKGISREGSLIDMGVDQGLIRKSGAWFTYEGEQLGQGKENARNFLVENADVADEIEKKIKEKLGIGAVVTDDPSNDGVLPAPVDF

[9] = microbe, parasite or virus in culture; type: functional; conditions: Mycobacterium tuberculosis
[10] = cytotoxicity toward NIH3T3 fibroblasts, dose response, counter-screen, cell-based, ATP luminescence, mouse fibroblasts (AID 2010); type: functional;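 also: cells exposed to compound for about 90 hours before reading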
[11] = biological target: Protein-tyrosine kinase 2-beta (Homo sapiens, UniProt Q14289);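 also: potency of inhibitors of PYK2 kinase phosphorylation of poly-GT substrate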
Sequence of Protein-tyrosine kinase 2-beta (Q14289 whole entry): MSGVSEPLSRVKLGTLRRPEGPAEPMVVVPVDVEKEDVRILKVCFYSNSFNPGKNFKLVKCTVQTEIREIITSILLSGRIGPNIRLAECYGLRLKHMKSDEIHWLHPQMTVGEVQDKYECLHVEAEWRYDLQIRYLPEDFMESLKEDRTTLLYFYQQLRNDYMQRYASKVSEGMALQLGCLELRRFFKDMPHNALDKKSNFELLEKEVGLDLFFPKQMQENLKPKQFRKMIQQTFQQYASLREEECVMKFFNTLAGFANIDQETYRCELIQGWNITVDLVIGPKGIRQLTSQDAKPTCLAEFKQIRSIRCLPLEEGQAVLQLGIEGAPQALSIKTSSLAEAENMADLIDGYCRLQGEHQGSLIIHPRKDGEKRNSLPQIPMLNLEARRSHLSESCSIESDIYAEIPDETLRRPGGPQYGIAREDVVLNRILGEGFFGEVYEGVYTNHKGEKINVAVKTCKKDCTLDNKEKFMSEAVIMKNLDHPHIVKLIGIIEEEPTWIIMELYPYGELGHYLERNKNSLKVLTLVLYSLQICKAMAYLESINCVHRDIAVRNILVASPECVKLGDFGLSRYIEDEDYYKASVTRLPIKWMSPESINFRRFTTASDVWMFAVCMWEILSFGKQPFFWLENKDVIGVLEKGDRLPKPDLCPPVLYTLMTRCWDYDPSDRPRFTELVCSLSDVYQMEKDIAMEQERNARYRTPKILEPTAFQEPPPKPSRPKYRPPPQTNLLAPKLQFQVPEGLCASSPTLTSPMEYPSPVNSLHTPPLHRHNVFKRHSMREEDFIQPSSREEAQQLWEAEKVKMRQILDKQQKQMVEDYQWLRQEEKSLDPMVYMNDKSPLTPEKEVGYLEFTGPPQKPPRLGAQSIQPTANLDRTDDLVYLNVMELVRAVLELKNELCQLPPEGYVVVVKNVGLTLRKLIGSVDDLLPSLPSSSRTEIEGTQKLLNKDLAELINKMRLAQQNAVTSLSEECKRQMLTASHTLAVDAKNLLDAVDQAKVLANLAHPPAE

Vero = Vero cell cytotoxicity, cytotoxicity control for flavivirus capping enzyme inhibitors (AID 588742); type: functional; conditions: Chlorocebus sabaeus
Streptococcus = test: Group A Streptococcus viability loss, dose response, counter-screen for streptokinase expression inhibitor project, luminescence, BacTiterGlo (AID 1915); type: functional, organism-based;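 also: potency for reduction of bacterial viability or growth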
[12] = biological target: T3, Replicative DNA helicase DnaB (Mycobacterium tuberculosis, UniProt P9WMR3); test: DnaB intein splicing inhibitors, dose response, biochemical, cell-free fluorescence (AID 449749); type: functional
T3 sequence (P9WMR3 whole entry): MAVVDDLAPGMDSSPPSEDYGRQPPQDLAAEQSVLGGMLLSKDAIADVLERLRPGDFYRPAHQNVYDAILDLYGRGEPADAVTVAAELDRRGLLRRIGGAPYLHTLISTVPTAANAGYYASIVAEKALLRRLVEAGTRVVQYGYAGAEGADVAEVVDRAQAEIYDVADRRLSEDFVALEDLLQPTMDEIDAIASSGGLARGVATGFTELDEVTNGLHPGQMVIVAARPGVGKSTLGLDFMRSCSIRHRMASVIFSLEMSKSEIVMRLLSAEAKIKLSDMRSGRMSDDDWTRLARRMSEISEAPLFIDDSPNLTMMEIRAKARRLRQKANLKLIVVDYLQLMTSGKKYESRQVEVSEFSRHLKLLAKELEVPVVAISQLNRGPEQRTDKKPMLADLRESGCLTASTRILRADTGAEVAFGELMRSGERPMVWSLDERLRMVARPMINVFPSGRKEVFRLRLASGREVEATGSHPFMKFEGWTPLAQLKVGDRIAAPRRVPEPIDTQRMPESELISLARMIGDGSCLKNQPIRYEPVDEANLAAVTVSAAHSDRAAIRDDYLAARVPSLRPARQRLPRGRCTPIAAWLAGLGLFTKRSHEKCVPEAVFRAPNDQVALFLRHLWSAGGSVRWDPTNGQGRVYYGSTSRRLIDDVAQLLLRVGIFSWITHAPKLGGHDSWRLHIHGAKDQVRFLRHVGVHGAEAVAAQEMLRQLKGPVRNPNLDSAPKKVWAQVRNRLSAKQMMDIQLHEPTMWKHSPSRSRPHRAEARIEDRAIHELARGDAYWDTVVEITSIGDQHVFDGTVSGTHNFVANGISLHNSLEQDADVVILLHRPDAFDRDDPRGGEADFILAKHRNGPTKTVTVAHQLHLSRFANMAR

Ephrin type-A receptor 4 = Ephrin type-A receptor 4 (Mus musculus, UniProt Q03137); test: inhibitors of EphA4 binding to KYL peptide, primary screen, biochemical, colorimetric, mouse EphA4 (AID 689); type: functional
Sequence of Ephrin type-A receptor 4 (Q03137 whole entry): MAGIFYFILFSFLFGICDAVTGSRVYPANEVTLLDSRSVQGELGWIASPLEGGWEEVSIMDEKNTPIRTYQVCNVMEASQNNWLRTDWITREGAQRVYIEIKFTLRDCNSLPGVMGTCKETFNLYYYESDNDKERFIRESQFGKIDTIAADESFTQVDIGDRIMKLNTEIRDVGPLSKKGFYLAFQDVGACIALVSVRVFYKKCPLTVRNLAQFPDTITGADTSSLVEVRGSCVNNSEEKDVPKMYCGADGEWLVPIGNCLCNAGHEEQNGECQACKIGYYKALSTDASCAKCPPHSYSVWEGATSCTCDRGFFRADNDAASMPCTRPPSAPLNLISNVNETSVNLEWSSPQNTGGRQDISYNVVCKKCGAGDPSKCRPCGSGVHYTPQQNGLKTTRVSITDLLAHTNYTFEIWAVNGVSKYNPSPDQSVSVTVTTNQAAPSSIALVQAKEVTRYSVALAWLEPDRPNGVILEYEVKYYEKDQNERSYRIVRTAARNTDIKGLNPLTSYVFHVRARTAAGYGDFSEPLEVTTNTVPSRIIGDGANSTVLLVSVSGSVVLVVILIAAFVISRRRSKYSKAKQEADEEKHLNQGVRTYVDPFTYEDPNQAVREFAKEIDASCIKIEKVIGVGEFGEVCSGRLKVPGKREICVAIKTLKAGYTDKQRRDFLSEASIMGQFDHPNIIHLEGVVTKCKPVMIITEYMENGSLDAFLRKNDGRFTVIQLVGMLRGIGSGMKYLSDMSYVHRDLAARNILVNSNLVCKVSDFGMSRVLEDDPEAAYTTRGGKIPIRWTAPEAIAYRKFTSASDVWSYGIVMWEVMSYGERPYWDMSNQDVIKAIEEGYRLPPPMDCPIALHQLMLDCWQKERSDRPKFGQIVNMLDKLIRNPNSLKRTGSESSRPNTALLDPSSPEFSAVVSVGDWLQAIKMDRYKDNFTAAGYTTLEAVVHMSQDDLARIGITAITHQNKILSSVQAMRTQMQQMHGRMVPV

Bcl-2-like protein 10 = Bcl-2-like protein 10 (Homo sapiens, UniProt Q9HD36); test: displacers of TR3 peptide from Bcl-B, primary screen, selectivity assay for Bfl-1 inhibitor project, biochemical, fluorescence polarization, FITC-TR3 peptide (AID 748);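 also: fluorescence polarization from a fluorescein-labelled TR3 peptide binding purified Bcl-B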
[13] = biological target: Induced myeloid leukemia cell differentiation protein Mcl-1 (Homo sapiens, UniProt Q07820); type: functional
Sequence of Induced myeloid leukemia cell differentiation protein Mcl-1 (Q07820 whole entry): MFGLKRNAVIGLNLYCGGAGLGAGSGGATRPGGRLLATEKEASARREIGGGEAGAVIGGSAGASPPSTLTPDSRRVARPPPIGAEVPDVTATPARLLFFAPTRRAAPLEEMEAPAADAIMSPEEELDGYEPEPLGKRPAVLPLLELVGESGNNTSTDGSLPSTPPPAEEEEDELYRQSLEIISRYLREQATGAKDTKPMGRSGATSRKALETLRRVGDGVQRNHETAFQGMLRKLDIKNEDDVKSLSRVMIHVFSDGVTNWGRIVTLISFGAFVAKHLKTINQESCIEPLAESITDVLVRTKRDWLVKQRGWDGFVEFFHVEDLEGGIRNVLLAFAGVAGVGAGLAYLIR

[14] = biological target: DNA (cytosine-5)-methyltransferase 1 (Homo sapiens, UniProt P26358); test: DNMT1 methyltransferase inhibitors, confirmation, biochemical, fluorescent molecular beacon (AID 602386); type: functional
[15] = THP-1 cell cytotoxicity, dose response, cytotoxicity control for Vif-APOBEC3G degradation inhibitor project, THP-1 cells (AID 1117359); type: functional; conditions: Human immunodeficiency virus 1, THP-1
Cytochrome P450 2C19 = Cytochrome P450 2C19 (Homo sapiens, UniProt P33261); test: qHTS Assay for Inhibitors and Substrates of Cytochrome P450 2C19. [Related pubchem assays: 410 ]; type: ADME; conditions: read-out: Potency
Sequence of Cytochrome P450 2C19 (P33261 whole entry): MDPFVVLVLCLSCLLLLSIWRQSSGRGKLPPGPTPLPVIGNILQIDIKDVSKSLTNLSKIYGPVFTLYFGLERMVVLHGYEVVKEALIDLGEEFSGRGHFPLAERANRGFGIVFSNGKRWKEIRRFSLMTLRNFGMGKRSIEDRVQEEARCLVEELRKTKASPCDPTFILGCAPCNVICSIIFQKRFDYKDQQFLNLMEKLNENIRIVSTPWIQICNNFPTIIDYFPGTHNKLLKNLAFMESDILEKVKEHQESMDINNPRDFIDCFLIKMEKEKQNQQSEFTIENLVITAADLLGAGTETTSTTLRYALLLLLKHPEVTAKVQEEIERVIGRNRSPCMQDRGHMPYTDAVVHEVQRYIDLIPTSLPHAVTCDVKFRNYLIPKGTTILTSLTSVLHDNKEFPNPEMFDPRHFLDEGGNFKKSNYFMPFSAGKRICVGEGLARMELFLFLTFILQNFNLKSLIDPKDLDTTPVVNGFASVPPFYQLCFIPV

Cytochrome P450 3A4 = Cytochrome P450 3A4 (Homo sapiens, UniProt P08684); conditions: Potency;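 also: confirmatory qHTS run detecting inhibitors and substrates of CYP3A4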
Sequence of Cytochrome P450 3A4 (P08684 whole entry): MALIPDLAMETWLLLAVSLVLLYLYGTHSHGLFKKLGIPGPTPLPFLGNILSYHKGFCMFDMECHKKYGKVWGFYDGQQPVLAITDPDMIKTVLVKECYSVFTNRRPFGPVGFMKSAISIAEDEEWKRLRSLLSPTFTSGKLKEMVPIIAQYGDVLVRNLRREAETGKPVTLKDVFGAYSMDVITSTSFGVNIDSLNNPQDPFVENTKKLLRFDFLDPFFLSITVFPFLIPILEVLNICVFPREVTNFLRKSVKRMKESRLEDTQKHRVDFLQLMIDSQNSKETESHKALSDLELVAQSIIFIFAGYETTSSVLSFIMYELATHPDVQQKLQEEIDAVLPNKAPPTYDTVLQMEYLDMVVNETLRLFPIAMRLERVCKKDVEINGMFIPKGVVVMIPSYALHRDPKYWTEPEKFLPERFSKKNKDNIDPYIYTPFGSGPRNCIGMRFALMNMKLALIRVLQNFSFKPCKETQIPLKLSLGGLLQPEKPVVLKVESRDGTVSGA

NADPH oxidase 1 = NADPH oxidase 1 (Homo sapiens, UniProt Q9Y5S8); test: Late-stage luminescence-based cell-based dose response assay to identify inhibitors of NADPH oxidase 1 (NOX1): Synthesized analogs.; type: functional
Sequence of NADPH oxidase 1 (Q9Y5S8 whole entry): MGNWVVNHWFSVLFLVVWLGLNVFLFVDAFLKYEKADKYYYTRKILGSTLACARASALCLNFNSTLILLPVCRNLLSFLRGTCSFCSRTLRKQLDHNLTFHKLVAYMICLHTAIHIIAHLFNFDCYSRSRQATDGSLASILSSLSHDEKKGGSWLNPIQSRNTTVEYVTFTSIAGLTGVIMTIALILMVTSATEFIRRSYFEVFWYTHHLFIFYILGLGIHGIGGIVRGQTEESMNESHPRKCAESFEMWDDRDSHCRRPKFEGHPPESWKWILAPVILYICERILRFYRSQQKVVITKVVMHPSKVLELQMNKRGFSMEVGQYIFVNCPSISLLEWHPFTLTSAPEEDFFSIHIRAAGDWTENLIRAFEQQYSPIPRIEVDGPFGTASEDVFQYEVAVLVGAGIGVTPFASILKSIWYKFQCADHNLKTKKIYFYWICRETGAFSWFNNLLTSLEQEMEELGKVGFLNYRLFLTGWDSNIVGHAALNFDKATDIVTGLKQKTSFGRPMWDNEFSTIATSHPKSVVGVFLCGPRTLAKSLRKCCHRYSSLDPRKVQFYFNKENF

[16] = biological target: E3 ubiquitin-protein ligase Mdm2 (Homo sapiens, UniProt Q00987); test: enhancers of MDM2-luciferase reporter signal, concentration-effect titration, project on inhibitors of MDM2 ubiquitin ligase, cellular assay, luminescent readout, 384-well plate format (AID 1394); type: functional;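 also: MDM2 E3 inhibitors raise luminescence so EC50 is for signal enhancement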

Sequence of Serine/threonine-protein phosphatase (Q9BPW0 whole entry): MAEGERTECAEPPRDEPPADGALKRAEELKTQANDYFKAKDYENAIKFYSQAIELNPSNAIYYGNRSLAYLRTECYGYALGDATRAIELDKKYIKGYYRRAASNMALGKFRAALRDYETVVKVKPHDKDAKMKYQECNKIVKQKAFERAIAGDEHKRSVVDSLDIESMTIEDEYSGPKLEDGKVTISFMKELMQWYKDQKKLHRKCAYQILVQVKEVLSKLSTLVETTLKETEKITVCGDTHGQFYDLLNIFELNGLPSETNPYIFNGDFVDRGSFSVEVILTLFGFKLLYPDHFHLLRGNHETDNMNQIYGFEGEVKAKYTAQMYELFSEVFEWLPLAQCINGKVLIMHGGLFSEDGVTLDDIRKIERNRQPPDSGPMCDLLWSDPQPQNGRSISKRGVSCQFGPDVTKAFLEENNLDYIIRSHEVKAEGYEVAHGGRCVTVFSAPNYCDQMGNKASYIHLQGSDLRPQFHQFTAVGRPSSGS

Cc1ccccc1NC1=C/C(=N\S(=O)(=O)c2cccs2)c2ccccc2C1=O
active: IC50 [1] 1.83 µM | IC50 [3] 0.438 µM | EC50 [4] 0.701 µM | EC50 [5] 1.04 µM | AC50 (INS1) 0.413 µM | IC50 [6] 0.335 µM | IC50 [8] 0.44 µM | EC50 (Protein RecA) 0.654 µM | CC50 [9] 3.13 µM | EC50 [10] 1.95 µM | CC50 (Vero) 4.33 µM | EC50 (Streptococcus) 4.55 µM
inactive: IC50 [7] 692 µM | AC50 [12] > 120 µM
> 69.5 µM (not active): IC50 [11]
> 22.3 µM (not active): IC50 [2]

O=C1CCCC2=C1C(c1ccco1)Nc1ccc3ccccc3c12 (stereo not given)
active: IC50 (Ephrin type-A receptor 4) 11.8 µM | IC50 (Bcl-2-like protein 10) 7.53 µM | IC50 [13] 3.2 µM | IC50 [14] 6.62 µM | CC50 [15] > 40 µM

O=c1cc(-c2ccccc2O)oc2c1ccc1ccccc12
inconclusive: AC50 (Cytochrome P450 2C19) 0.251 µM | AC50 (Cytochrome P450 3A4) 15.8 µM

O=C(/C=C/c1ccccc1)N1c2ccccc2Sc2ccc(C(F)(F)F)cc21
> 50 µM (not active): IC50 (NADPH oxidase 1)

CCN(CC)C(=O)CN1CCN(c2ncccn2)CC1
16.1 µM (not active): EC50 [16]
